From article PMC5908784, “Extracellular loops 2 and 3 of the calcitonin receptor selectively modify agonist binding and efficacy” (Biochemical Pharmacology, 2018)
Numbering of substitutions follows the chain as printed. Where no end group is shown, it is not given here.

Assays:
Experiment in all cases: Homologous whole cell competition binding
Details in all cases: homologous competition of 125I-sCT(8-32), whole cells, mean ± S.E.M., SEM
hCTR R281A = target: T1, hCTR R281A (Homo sapiens, UniProt P30988, R281A)
T1 construct: expressed in transfected cells
T1 sequence (P30988 25-474 R281A): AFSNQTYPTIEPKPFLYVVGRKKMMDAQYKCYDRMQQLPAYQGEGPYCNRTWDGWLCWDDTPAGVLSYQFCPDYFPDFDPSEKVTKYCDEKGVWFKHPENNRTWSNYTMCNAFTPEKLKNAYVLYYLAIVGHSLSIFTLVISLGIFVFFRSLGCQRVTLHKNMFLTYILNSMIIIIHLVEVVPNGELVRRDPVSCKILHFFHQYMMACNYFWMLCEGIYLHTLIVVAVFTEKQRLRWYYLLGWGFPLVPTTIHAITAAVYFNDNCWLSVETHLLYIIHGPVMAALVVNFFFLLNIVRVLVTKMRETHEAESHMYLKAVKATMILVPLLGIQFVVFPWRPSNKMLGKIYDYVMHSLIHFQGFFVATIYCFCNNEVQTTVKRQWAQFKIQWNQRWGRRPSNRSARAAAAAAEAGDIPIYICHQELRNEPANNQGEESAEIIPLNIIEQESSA
How it was run: (§1)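 Whole cells expressing the mutant receptor were incubated overnight at 4 °C with ^125I-sCT(8-32) (25–100 pM, two concentrations) and serial dilutions of unlabelled sCT(8-32). Bound radioactivity was gamma-counted; nonspecific binding was defined with 1 μM sCT(8-32). IC50 was fitted by 3-parameter logistic and Cheng-Prusoff-corrected to pKi.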

hCTR V375A = target: T2, hCTR V375A (Homo sapiens, UniProt P30988, V375A)
T2 construct: c-Myc (N); expressed in transfected cells
T2 sequence (P30988 25-474 V375A): T1 sequence (P30988 25-474 R281A) with A257R, V351A
How it was run: as §1

hCTR E294A = target: T3, hCTR E294A (Homo sapiens, UniProt P30988, E294A)
T3 construct: c-Myc (N); expressed in transfected cells
T3 sequence (P30988 25-474 E294A): T1 sequence (P30988 25-474 R281A) with A257R, E270A
How it was run: as §1

hCTR V293A = target: T4, hCTR V293A (Homo sapiens, UniProt P30988, V293A)
T4 construct: c-Myc (N); expressed in transfected cells
T4 sequence (P30988 25-474 V293A): T1 sequence (P30988 25-474 R281A) with A257R, V269A
How it was run: as §1

Ki (hCTR R281A): 0.851 nM
Ki (hCTR V375A): 0.191 nM
Ki (hCTR E294A): 0.263 nM
Ki (hCTR V293A): 0.178 nM
Substance: VLGKLSQELHKLQTYPRTNTGSGTP-NH2 [sCT(8-32)]
